Article PMC7035259, “T-13 and T-26, the novel taxanes with improved oral bioavailability in rats” (Scientific Reports, 2020)

What was measured:
P-glycoprotein (P-gp) = molecular target: T1, P-glycoprotein (P-gp) (Homo sapiens, UniProt P08183); assay: Interaction with P-gp in MDCK-MDR1 and MDCK-WT cell permeability studies; format: in vitro ADME; conditions: MDCK-MDR1 and MDCK-WT cells; for P-gp substrate activity: with and without a P-gp inhibitor (such as verapamil); for P-gp inhibition: with and without a P-gp substrate (such as digoxin)
T1 construct: expressed in transfected cells; host or cells: MDCK-MDR1 (Madin-Darby canine kidney cells carrying MDR1); MDCK-WT as control
T1 sequence (P08183 whole entry): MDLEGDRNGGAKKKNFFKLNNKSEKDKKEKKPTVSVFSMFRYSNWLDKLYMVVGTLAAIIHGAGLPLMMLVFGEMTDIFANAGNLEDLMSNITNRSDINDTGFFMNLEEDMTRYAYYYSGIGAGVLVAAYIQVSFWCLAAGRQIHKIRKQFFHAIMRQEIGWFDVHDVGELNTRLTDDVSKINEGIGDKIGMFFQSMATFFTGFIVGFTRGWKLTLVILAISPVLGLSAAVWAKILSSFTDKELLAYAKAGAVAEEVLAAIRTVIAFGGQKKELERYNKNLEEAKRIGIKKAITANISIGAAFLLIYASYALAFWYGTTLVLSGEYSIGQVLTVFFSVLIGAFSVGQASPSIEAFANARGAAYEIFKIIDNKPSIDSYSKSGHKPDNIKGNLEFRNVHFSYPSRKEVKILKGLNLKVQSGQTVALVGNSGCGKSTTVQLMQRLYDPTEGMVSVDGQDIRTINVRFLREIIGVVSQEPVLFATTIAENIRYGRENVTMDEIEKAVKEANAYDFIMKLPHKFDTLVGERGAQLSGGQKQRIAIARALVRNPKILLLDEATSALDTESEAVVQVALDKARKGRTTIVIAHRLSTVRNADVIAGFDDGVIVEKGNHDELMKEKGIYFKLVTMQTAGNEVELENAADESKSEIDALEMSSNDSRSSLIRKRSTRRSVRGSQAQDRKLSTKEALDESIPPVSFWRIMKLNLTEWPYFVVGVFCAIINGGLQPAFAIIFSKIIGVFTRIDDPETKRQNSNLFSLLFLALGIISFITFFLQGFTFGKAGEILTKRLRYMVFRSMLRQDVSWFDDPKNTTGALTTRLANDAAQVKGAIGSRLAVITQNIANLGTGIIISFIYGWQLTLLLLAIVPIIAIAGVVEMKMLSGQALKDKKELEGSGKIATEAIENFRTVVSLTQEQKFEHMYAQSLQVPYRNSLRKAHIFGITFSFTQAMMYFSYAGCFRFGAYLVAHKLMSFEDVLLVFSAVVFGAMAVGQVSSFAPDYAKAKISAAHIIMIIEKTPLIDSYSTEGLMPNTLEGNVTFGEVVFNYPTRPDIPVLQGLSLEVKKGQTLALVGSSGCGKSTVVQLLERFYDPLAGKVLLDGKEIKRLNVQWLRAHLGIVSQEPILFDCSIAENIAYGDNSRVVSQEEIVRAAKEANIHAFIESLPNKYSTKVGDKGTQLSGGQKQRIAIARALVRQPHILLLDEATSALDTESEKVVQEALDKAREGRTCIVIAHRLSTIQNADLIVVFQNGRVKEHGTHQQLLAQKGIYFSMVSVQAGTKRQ
Text: In an attempt to increase the solubility of taxoids and develop more safe clinical formulations, we previously synthesized a series of novel taxol analogs by modifying the positions of C7, C10, C14 and C3′, which have improved water solubility and oral bioavailability. […] In order to further evaluate the substrate activity of novel taxol analogs with P-gp and whether they are P-gp inhibitors, T-13 and T-26 were selected based on structural characteristics (with or without 1, 14-carbonate moiety) and cytotoxicity in vitro for evaluation of the interaction with P-gp in Madin-Darby canine kidney (MDCK)-multidrug resistance-1 (MDR1) and MDCK-wild type (WT) cells (a more P-gp specific model)[13],[14] permeability studies, under two sets of conditions: one with and without a P-gp inhibitor (such as verapamil) to look at whether the test compounds were P-gp substrates or not, one with and without a P-gp substrate (such as digoxin) to look at whether the test compounds were P-gp inhibitors or not. […] Therefore, the permeability of the Caco-2 cells was enhanced in vitro.

Caco-2 monolayer cells = test system: Caco-2 monolayer cells; set-up: method as in PMID 24332858; conditions: cited from earlier work
[1] = Pharmacokinetics after intravenous and oral administration in rats (LC-MS/MS of plasma); format: in vivo, male Sprague-Dawley (S.D.) rats; conditions: oral 60 mg/kg vs intravenous 5 mg/kg, F = (AUCp.o × Dosei.v)/(AUCi.v × Dosep.o) × 100%; for bioavailability: male, Sprague-Dawley, rat, plasma, read-out: F (absolute oral bioavailability)
Method: For the pharmacokinetic study, male S.D. rats (average weight 300 g) were fasted overnight to prevent coprophagia but allowing free access to water. The rats were randomly divided into four groups (6 animals each). The dosages of taxanes used in the pharmacokinetic study were based on the previously published reports[15]–[17]. For solution, T-13 and T-26 were dissolved in a mixture of Tween 80 and ethanol (50:50, v/v) at 50 mg/mL for intravenous and oral administration, respectively. Group I received the T-13 stock solution diluted with normal saline solution up to 1 mL at a dose of 5 mg/kg for intravenous injection. Group II received T-13 at a dose of 60 mg/kg for oral administration. Group III received the compound T-26 stock solution diluted with normal saline solution up to 1 mL at a dose of 5 mg/kg for intravenous injection. Group IV received T-26 at a dose of 60 mg/kg for oral administration.
Blood samples (~0.20 mL) were collected into heparin coated tubes at 0, 5, 10, 20, 40 min, 1, 2, 4, 6, 8, 12 and 24 h after intravenous injection and 5, 15, 30, 45 min, 1, 2, 4, 6, 8, 12 and 24 h after oral administration. Blood samples were centrifuged at 12,000 rpm for 10 min. The supernatant fractions were transferred into labeled microcentrifuge tubes and stored at −40 °C until LC-MS/MS analysis.
The concentration of T-13 and T-26 were determined in plasma by LC/MS as described above. Calibration curves were used for the conversion of the T-13/Paclitaxel chromatographic area to the concentration. Calibrator and quality control samples were prepared by adding appropriate volumes of standard T-13 or T-26 acetonitrile solution to drug-free plasma. Calibration curves were designed over the range 5–10,000 ng/mL (γ^2 > 0.999). An aliquot (100 μL) of plasma sample was mixed with 100 μL of acetonitrile containing internal standard (PTX, 500 ng/mL), followed by vortex mixing. Then the mixture was added 3 mL of ethyl acetate, followed by vortex gentle agitation for 3 min. […] The supernatant fraction was transferred to auto-sampler vial, and analyzed by HPLC. […]
The pharmacokinetic analysis of concentration-time data obtained after the administration of the compounds T-13 and T-26 were analyzed by a noncompartmental model using Xcalibur® (version 1.3) Software (Thermo Finnigan). The following pharmacokinetic parameters were calculated from the plasma data of Group I and Group III using WinNonlin5.2. Software: total area under the plasma concentration versus time curve, determined by extrapolation from 0 to ∞ after intravenous administration (AUCiv), half-life of the terminal phase (t1/2) and the mean residence time (MRT). Other parameters such as maximum plasma concentration (Cmax) and the time to reach Cmax (Tmax) were also analyzed after oral administration in rats.

[2] = set-up: method as in PMID 23811429; conditions: paclitaxel, rats; cited from earlier work

SMILES | P-gp substrate activity (P-glycoprotein (P-gp)) | P-gp inhibition (P-glycoprotein (P-gp)) | efflux ratio (Caco-2 monolayer cells) | permeability (Caco-2 monolayer cells) | bioavailability [1] [%] | F (absolute oral bioavailability) [1] [%] | oral bioavailability [2] [%]
CO[C@H]1C(=O)[C@]2(C)[C@@H](OC(=O)N(C)C)C[C@H]3OC[C@@]3(OC(C)=O)[C@H]2[C@H](OC(=O)c2ccccc2)[C@]2(O)C[C@H](OC(=O)[C@H](O)[C@@H](NC(=O)OC(C)(C)C)c3ccccc3)C(C)=C1C2(C)C [Compound T-13] | poor substrates of P-gp | possessed inhibiting effects of P-gp mediated efflux | less than 2.0 | highest permeability | ~11 | 10.71 | –
CO[C@H]1C(=O)[C@]2(C)[C@@H](OC(=O)N(C)C)C[C@H]3OC[C@@]3(OC(C)=O)[C@H]2[C@H](OC(=O)c2ccccc2)[C@]2(O)C[C@H](OC(=O)[C@H](O)[C@H](CC(C)C)NC(=O)OC(C)(C)C)C(C)=C1C2(C)C [Compound T-15] | – | – | less than 2.0 | highest permeability | – | – | –
CO[C@H]1C[C@H]2OC[C@@]2(OC(C)=O)[C@H]2[C@H](OC(=O)c3ccccc3)[C@]34OC(=O)O[C@H]3[C@H](OC(=O)[C@H](O)[C@@H](NC(=O)OC(C)(C)C)c3ccccc3)C(C)=C([C@@H](OC(=O)N(C)C)C(=O)[C@]12C)C4(C)C [Compound T-26] | poor substrates of P-gp | possessed inhibiting effects of P-gp mediated efflux | less than 2.0 | highest permeability | ~66 | 65.79 | –
CC(=O)O[C@H]1C(=O)[C@@]2(C)[C@H]([C@H](OC(=O)c3ccccc3)[C@]3(O)C[C@H](OC(=O)[C@H](O)[C@@H](NC(=O)c4ccccc4)c4ccccc4)C(C)=C1C3(C)C)[C@]1(OC(C)=O)CO[C@@H]1C[C@@H]2O [paclitaxel, Paclitaxel] | – | – | – | – | – | – | 5
